Assay: water solubility
Type: physicochemical

- solubility in water: soluble in water
SMILES: CCCCP(=N)(CCCC)CCCC [tributylphosphinimine]

— patent US5601800A, “New multifunctional ligands for potential use in the design therapeutic or diagnostic radiopharmaceutical imaging agents” (Curators of the University of Missouri, priority 1994, dated 1997)
